Experimental data taken from patent US8952024B2, “Herbicidal pyrimidone derivatives” (E I du Pont de Nemours and Company, priority 2009, dated 2015).

Tests used:
Experiment in all cases: Test A pre-/postemergence plant response
Type in all cases: in vivo
[1] = system: barnyardgrass (Echinochloa crus-galli); settings: for Barnyardgrass plant response rating: visual injury, 0 to 100 scale (0 no effect, 100 complete control), approx. ten days
Source text: (§1) Seeds of barnyardgrass (Echinochloa crus-galli), large crabgrass (Digitaria sanguinalis), giant foxtail (Setaria faberii), morningglory (Ipomoea spp.), pigweed (Amaranthus retroflexus), velvetleaf (Abutilon theophrasti), wheat (Triticum aestivum) and corn (Zea mays) were planted into a blend of loam soil and sand and treated preemergence with a directed soil spray using test chemicals formulated in a non-phytotoxic solvent mixture which included a surfactant. At the same time these species were also treated with postemergence applications of test compounds formulated in the same manner.
(§2) Plants ranged in height from two to ten cm and were in the one- to two-leaf stage for the postemergence treatment. Treated plants and untreated controls were maintained in a greenhouse for approximately ten days, after which time all treated plants were compared to untreated controls and visually evaluated for injury. Plant response ratings, summarized in Table A, are based on a 0 to 100 scale where 0 is no effect and 100 is complete control. A dash (-) response means no test result.

[2] = system: large crabgrass (Digitaria sanguinalis); settings: for Crabgrass, Large plant response rating: visual injury, 0 to 100 scale (0 no effect, 100 complete control), approx. ten days
Source text: as §1, §2

[3] = system: wheat (Triticum aestivum)
Source text: as §1, §2

[4] = system: giant foxtail (Setaria faberii)
Source text: as §1, §2

[5] = system: velvetleaf (Abutilon theophrasti)
Source text: as §1, §2

[6] = system: morningglory (Ipomoea spp.)
Source text: as §1, §2

[7] = system: pigweed (Amaranthus retroflexus)
Source text: as §1, §2

corn (Zea mays) = settings: for Corn plant response rating: visual injury, 0 to 100 scale (0 no effect, 100 complete control), approx. ten days
Source text: as §1, §2

[8] = Postemergence, 125 g ai/ha, 0 to 100 scale where 0 is no effect and 100 is complete control
[9] = Preemergence, 125 g ai/ha, 0 to 100 scale, 0 = no effect, 100 = complete control
[10] = Preemergence, 500 g ai/ha, 0 to 100 scale, 0 = no effect, 100 = complete control
[11] = Postemergence, 500 g ai/ha, visual injury, 0 to 100 scale (0 no effect, 100 complete control), approx. ten days
[12] = Preemergence, 125 g ai/ha, 0 to 100 scale where 0 is no effect and 100 is complete control, approximately ten days
[13] = Postemergence, 125 g ai/ha, visual injury, 0 to 100 scale (0 no effect, 100 complete control), approx. ten days

SMILES	Plant response rating, Barnyardgrass [1, 8]	Barnyardgrass plant response rating ([1]; Postemergence, 500 g ai/ha)	Plant response rating, Barnyardgrass [1, 9]	Plant response rating, Barnyardgrass [1, 10]	Plant response rating, Crabgrass, Large [2, 8]	Crabgrass, Large plant response rating ([2]; Postemergence, 500 g ai/ha)	Plant response rating, Crabgrass, Large [2, 10]	Wheat plant response rating [3, 11]	Plant response rating, Wheat [3, 10]	Foxtail, Giant plant response rating [4, 11]	Plant response rating, Foxtail, Giant [4, 10]	Velvetleaf plant response rating [5, 11]	Plant response rating, Velvetleaf [5, 10]	Morningglory plant response rating [6, 11]	Plant response rating, Morningglory [6, 10]	Pigweed plant response rating [7, 11]	Plant response rating, Pigweed [7, 10]	Plant response rating, Corn (corn (Zea mays); [8])	Corn plant response rating (corn (Zea mays); Postemergence, 500 g ai/ha)	Plant response rating, Corn (corn (Zea mays); [10])	further results
CCCn1c(-c2ccc3c(c2)OCCO3)ncc(C(=O)C2=C(O)C3CCC(C3)C2=O)c1=O (stereo not drawn) [Compound 241]	90	90	10	90	50	70	90	60	40	90	70	100	60	100	30	80	50	20	50	20	Plant response rating, Crabgrass, Large [2, 9]: 20; Plant response rating, Wheat [3, 8]: 40; Plant response rating, Wheat [3, 9]: 0; Plant response rating, Foxtail, Giant [4, 8]: 80; Plant response rating, Foxtail, Giant [4, 9]: 10; Plant response rating, Velvetleaf [5, 8]: 100; Plant response rating, Velvetleaf [5, 9]: 20; Plant response rating, Morningglory [6, 8]: 100; Plant response rating, Morningglory [6, 9]: 0; Plant response rating, Pigweed [7, 8]: 70; Plant response rating, Pigweed [7, 9]: 20; Plant response rating, Corn (corn (Zea mays); [9]): 0
CCCn1c(-c2ccc3ccccc3c2)ncc(C(=O)C2=C(O)C3CCC(C3)C2=O)c1=O (stereo not drawn) [Compound 242]	50	90	0	0	20	60	10	30	0	80	0	90	0	100	0	30	0	0	20	0	Plant response rating, Crabgrass, Large [2, 9]: 0; Plant response rating, Wheat [3, 8]: 0; Plant response rating, Wheat [3, 9]: 0; Plant response rating, Foxtail, Giant [4, 8]: 50; Plant response rating, Foxtail, Giant [4, 9]: 0; Plant response rating, Velvetleaf [5, 8]: 50; Plant response rating, Velvetleaf [5, 9]: 0; Plant response rating, Morningglory [6, 8]: 40; Plant response rating, Morningglory [6, 9]: 0; Plant response rating, Pigweed [7, 8]: 20; Plant response rating, Pigweed [7, 9]: 0; Plant response rating, Corn (corn (Zea mays); [9]): 0
O=C(C1=C(O)C2CCC(C2)C1=O)c1cnc(-c2ccccc2)n(C2CCCCCCCCCCC2)c1=O (stereo not drawn) [Compound 247]	30	80	–	0	40	70	0	0	0	30	0	100	0	100	0	90	0	0	30	0	Plant response rating, Barnyardgrass [1, 12]: 0; Plant response rating, Crabgrass, Large [2, 12]: 0; Plant response rating, Wheat [3, 13]: 0; Plant response rating, Wheat [3, 12]: 0; Plant response rating, Foxtail, Giant [4, 13]: 0; Plant response rating, Foxtail, Giant [4, 12]: 0; Plant response rating, Velvetleaf [5, 13]: 100; Plant response rating, Velvetleaf [5, 12]: 0; Plant response rating, Morningglory [6, 13]: 100; Plant response rating, Morningglory [6, 12]: 0; Plant response rating, Pigweed [7, 13]: 70; Plant response rating, Pigweed [7, 12]: 0; Plant response rating, Corn (corn (Zea mays); [12]): 0
